For data set [1], the target named is T1, Horseradish peroxidase (HRP) (Armoracia rusticana, UniProt P00433).
T1 sequence (P00433 31-338): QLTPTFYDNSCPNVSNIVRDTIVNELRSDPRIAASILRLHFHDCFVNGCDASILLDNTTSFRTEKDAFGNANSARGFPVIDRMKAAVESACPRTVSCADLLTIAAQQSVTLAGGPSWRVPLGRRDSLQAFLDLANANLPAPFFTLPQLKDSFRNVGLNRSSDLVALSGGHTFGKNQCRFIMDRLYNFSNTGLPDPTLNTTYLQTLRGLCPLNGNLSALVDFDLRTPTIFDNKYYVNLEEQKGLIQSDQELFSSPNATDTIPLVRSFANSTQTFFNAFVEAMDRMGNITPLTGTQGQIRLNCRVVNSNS
The experiment in a line: Mediation to horseradish peroxidase, rotating ring-disk voltammetry. The data set is classed as biochemical. Conditions: mediator 0.5 mM, HRP 280 U, ring poised at -100 mV, disk scanned -100 to -600 mV. As to the method: (§1) The phosphate buffer solution (PBS) of 0.15 M phosphate (with 0.2 M sodium chloride as supporting electrolyte), pH 7.0, containing 0.1 M glucose was prepared using Analar reagents from Merck BDH. The solution was stored overnight at 4° C. prior to use to allow equilibration of the α- and β-anomers. Glucose oxidase (EC 1.1.3.4 from Aspergillus niger) was supplied by Sturge Enzymes. Horseradish peroxidase was obtained from Biozyme.
The ability of the β-cyclodextrin adduct of the manganese complex Compound 10 to mediate with […] (HRP) was assessed by comparing it with 1,1'-dimethylferrocene ethanolamine using rotating ring-disk voltammetry according to a literature method (Anal. Chem., 62 (1990) 2429). Experiments were carded out using a glass cell (14 ml capacity) containing a platinum counter electrode with a calomel reference electrode. A gold-gold ring-disk electrode, rotated at 4 Hz, was immersed in a phosphate-buffered saline solution of the mediator (0.5 mM) containing HRP (280 U). The catalytic ring current was then measured while poising the ring electrode at -100 mV and scanning the disk electrode from -100 to -600mV to generate hydrogen peroxide.

Data set [2] is described as follows: Cyclic voltammetry of the complexes in aqueous buffer (PBS). It counts as physicochemical. Conditions: for EOX: arene chromium tricarbonyl complexes, aqueous electrochemistry; for potential of the voltammetric wave: manganese complexes in aqueous buffer (PBS).
Data set [3] addresses T2, glucose oxidase (GOD) (Aspergillus niger, UniProt P13006). The experiment in a line: Mediation to glucose oxidase with screen-printed carbon electrodes containing the mediator. The data set is classed as biochemical. On the procedure: as §1
(§2) Screen-printed electrodes incorporating Compound 6 were produced from an organic carbon ink containing the chromium complex at a level of 3.5 mg/g ink. FIG. 2a comprises cyclic voltammograms of electrodes containing the chromium complex Compound 6 at 50 mV/s and 0.2 μA/cm in PBS, and FIG. 2b the catalytic wave upon addition of 100 μl glucose oxidase recorded at 20 mV/s and 0.5 μA/cm. […] From FIG. 2b, it is seen that GOD mediation occurs on applying mixtures of enzyme and glucose to the electrodes, with small catalytic currents of about 1 μA.
Further work with the dithiocarbamate complexes Compounds 10 to 12 was carried out with screen-printed carbon electrodes produced from carbon inks mixed with each of the complexes. […] Catalytic currents in the region of 4 μA were recorded in the presence of GOD and glucose. […]

A short description of data set [4]: Cyclic voltammetry of screen-printed carbon electrodes containing the complex. The data set is classed as physicochemical. The settings on record: for oxidation wave potential: screen-printed carbon electrodes, scan rates 50 and 100 mV/s. On the procedure: as §2
Further work with the dithiocarbamate complexes Compounds 10 to 12 was carried out with screen-printed carbon electrodes produced from carbon inks mixed with each of the complexes. […] Catalytic currents in the region of 4 μA were recorded in the presence of GOD and glucose. Variable but increased currents of up to 29 μA were obtained with 0.1 M glucose when the enzyme was confined in the carbon electrode with the mediator, see FIG. 9.

Data set [5] concerns the target T2, glucose oxidase (GOD). The experiment in a line: Mediation to glucose oxidase in solution (catalytic wave, enzyme titration in 0.1 M glucose/PBS). The data set is classed as biochemical.
For data set [6] the following is noted: cited from earlier work.
A short description of data set [7]: Solubility / stability in aqueous buffer. Conditions: aqueous buffer / water.
For data set [8] the following is noted: pH 7.
Data set [9] addresses T2, glucose oxidase (GOD). Conditions: literature value (Anal. Chem., 56 (1984) 667); cited from earlier work.
Where [10] appears, read: complex in aqueous buffer (PBS).
Where [11] appears, read: 0.5 mM in PBS with added β-cd (0.5-5.0 mM).

T2 sequence (P13006 17-605): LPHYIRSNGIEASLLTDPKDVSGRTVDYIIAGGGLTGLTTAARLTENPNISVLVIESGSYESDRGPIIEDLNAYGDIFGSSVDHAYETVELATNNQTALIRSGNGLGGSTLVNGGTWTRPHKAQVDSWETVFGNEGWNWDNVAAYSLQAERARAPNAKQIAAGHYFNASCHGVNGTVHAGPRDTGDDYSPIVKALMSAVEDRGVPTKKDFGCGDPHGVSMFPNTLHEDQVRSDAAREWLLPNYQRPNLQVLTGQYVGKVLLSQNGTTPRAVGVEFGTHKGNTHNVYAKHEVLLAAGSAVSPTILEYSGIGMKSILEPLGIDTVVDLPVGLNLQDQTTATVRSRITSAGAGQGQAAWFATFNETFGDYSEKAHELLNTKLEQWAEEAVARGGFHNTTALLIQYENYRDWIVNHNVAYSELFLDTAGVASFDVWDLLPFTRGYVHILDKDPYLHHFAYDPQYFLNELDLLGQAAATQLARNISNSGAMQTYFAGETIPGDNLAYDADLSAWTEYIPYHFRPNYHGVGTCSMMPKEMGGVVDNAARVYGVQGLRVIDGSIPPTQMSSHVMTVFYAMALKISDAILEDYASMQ

Consider “1,1'-dimethylferrocene ethanolamine [reference compound]”, for which the “catalytic ring current, comparison of mediators” value in data set [1] was “identical catalytic currents”.

On to `CN(C)c1ccccc1.[C-]#[O+].[C-]#[O+].[C-]#[O+].[Cr]` [Compound 1], for which, in data set [2], the EOX entry was “+250 mV”.

Regarding `OCCN(CCO)c1ccccc1.[C-]#[O+].[C-]#[O+].[C-]#[O+].[Cr]` [Compound 3], in data set [2], the EOX entry was “+250 mV”.

Regarding `Nc1ccc(N)cc1.[C-]#[O+].[C-]#[O+].[C-]#[O+].[Cr]` [Compound 4], the EOX result in data set [2] was “+135 mV”.

With `COc1ccc(N)c(OC)c1.[C-]#[O+].[C-]#[O+].[C-]#[O+].[Cr]` [Compound 5], the EOX entry in [2] was “+170 mV”.

Consider `Cc1c(C)c(N)c(C)c(C)c1N.[C-]#[O+].[C-]#[O+].[C-]#[O+].[Cr]` [Compound 6], for which, at glucose oxidase (GOD) [3] (mixtures of GOD and glucose applied to screen-printed electrodes containing the mediator), the catalytic current result is “about 1 μA”. The EOX entry in data set [2] is “+40 mV”. Further, the “reversibility of the voltammetric wave” value in data set [2] (setting [10]) is “reversible wave”; in data set [4] (screen-printed electrodes, PBS applied) it was “reversible wave”. Besides, the mid-point potential in data set [4] (screen-printed electrodes, 3.5 mg complex/g ink, PBS applied) is -15 mV.

`Nc1cc(N)cc(N)c1.[C-]#[O+].[C-]#[O+].[C-]#[O+].[Cr]` [Compound 7]: the EOX entry in data set [2] is on record as “+50 mV”.

For the compound `Cc1cc[cH-]c1.[C-]#[O+].[C-]#[O+].[C-]#[O+].[Mn]` [Compound 8, (methylcyclopentadienyl)manganese tricarbonyl], the “second order rate coefficient for the oxidation of reduced GOD” value on glucose oxidase (GOD) [5] (0 to 25 μl GOD titrated into mediator in 0.1 M glucose/PBS, from icat versus [GOD]^1/2) came out at 210000 M⁻¹ s⁻¹.

Take `[C-]#[O+].[C-]#[O+].[C-]#[O+].[Mn].[c-]1[c-][c-][cH-][c-]1` [Cyclopentadienyl manganese tricarbonyl]: the “oxidation potential, more positive than ferrocene” value in [6] (in acetonitrile, relative to ferrocene) was roughly 1.2 V.

As for `[C-]#[O+].[C-]#[O+].[C-]#[O+].[Cr].c1ccccc1` [benzene chromium tricarbonyl], the “aqueous solubility (in words)” value in data set [7] is “negligible solubility in buffer”. Also, the half wave potential result in [6] (in dichloromethane) is reported as “+710 mV vs SCE”.

For the compound [MeCpMn(NO)(CN)2 ]Na [Compound 13], the “reversibility of the voltammetric wave” value in data set [2] (setting [10]) is “reversible wave”. Also, the “potential of the voltammetric wave” value in [2] is “+440 mV”.

Consider [MeCpMn(NO)(CO)2 ]PF6 [Compound 9], for which the “oxidation potential of the species formed by decomposition” value in data set [2] (aqueous buffer, irreversibly oxidized) is reported as “+230 mV”.

Consider [MeCpMn(NO)(S2 CNEt2)] [Compound 11], for which the oxidation wave potential result in data set [4] is reported as “+300 mV”.

For [MeCpMn(NO)(S2 CNMe2)] [Compound 10], on glucose oxidase (GOD) [3] (0.1 M glucose, enzyme confined in the carbon electrode with the mediator), the catalytic current result is given as “up to 29 μA”. Further, the oxidation wave potential entry in data set [4] is “+240 mV”.

In the case of [MeCpMn(NO)(S2 CNMe2)]β-cyclodextrin, the “solubility in PBS” value in data set [8] was “at least 0.5 mM”. Besides, the “icat (catalytic wave)” value at glucose oxidase (GOD) [5] (upon addition of GOD and glucose, 0.1 M glucose/PBS) turned out to be 9.7 μA. Further, the “catalytic ring current, comparison of mediators” value in data set [1] was “identical catalytic currents”. The compound further returned a ΔEp in data set [2] (0.1 M glucose/PBS) of 70 mV. In addition, the “reversibility of the voltammetric wave” value in [2] (setting [10]) is listed as “reversible wave”. Also, in data set [2], the “potential of the voltammetric wave” value was “+255 mV”.

For the compound [MeCpMn(NO)(bipy)]PF6 [Compound 14], the “reversibility of the voltammetric wave” value in data set [2] (setting [10]) is reported as “irreversible electrochemistry”. Also, the “potential of the voltammetric wave” value in data set [2] is “about +600 mV”.

On to [MeCpMn(NO)(phen)]PF6 [Compound 15], for which, in data set [2] (setting [10]), the “reversibility of the voltammetric wave” value is listed as “irreversible electrochemistry”. Moreover, the “potential of the voltammetric wave” value in data set [2] is reported as “about +600 mV”.

Turning to “[MeCpMn(NO){(SCCN)2 }][NEt4 ] [Compound 16]”, in [2] (setting [11]), the E1/2 result is “+5 mV” and the ΔEp is recorded as 65 mV. The “reversibility of the voltammetric wave” value in data set [2] (0.5 mM in buffer with added β-cd (0.5-5.0 mM)) was “reversible wave”. Also, the Eox in data set [2] (0.6 mM in PBS, 50 mV/s) was -25 mV.

In the case of ferrocene monocarboxylic acid, the “second order rate constant for the oxidation of reduced GOD” value on glucose oxidase (GOD) [9] was 200000 M⁻¹ s⁻¹.

Source of the values: patent US5710011A, “Mediators to oxidoreductase enzymes” (Medisense, Inc., priority 1992, dated 1998).
